Data from ChEMBL document CHEMBL1201862, “PubChem BioAssay data set” (2004).
Activity calls are given as the source filed them.

Experiments:
Insulin-degrading enzyme = target: T1, Insulin-degrading enzyme (Homo sapiens, UniProt P14735); test: activators of endogenous IDE in HEK cells, dose response, cell-based, fluorescence polarization (AID 588439); format: functional
T1 sequence (P14735 whole entry): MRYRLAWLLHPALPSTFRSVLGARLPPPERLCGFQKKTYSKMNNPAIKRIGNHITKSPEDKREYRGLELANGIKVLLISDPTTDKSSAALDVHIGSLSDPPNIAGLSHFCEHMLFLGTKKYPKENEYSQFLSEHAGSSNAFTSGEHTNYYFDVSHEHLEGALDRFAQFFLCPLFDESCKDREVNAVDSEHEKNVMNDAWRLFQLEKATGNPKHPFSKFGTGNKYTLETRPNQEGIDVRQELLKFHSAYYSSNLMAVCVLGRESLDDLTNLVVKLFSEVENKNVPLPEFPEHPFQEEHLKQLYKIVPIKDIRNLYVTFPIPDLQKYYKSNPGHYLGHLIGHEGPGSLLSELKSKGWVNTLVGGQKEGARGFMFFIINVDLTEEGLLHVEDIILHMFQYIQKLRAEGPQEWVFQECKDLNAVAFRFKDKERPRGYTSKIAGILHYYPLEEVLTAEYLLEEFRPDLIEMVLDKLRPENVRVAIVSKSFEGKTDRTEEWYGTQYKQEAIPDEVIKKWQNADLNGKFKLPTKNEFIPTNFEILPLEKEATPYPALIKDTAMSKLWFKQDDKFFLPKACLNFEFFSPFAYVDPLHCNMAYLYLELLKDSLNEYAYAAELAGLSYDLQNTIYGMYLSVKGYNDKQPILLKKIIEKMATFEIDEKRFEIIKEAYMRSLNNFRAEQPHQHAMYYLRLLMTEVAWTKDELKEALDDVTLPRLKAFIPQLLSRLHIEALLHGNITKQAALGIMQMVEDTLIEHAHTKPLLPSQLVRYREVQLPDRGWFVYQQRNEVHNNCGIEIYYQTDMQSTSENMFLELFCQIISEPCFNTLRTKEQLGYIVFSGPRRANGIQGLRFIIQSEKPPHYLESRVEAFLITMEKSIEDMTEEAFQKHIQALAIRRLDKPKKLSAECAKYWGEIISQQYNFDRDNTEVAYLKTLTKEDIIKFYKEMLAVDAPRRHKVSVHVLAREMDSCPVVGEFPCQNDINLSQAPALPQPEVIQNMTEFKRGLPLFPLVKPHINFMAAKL

[1] = target: T2, Sentrin-specific protease 8 (Homo sapiens, UniProt Q96LD8); format: functional
T2 sequence (Q96LD8 whole entry): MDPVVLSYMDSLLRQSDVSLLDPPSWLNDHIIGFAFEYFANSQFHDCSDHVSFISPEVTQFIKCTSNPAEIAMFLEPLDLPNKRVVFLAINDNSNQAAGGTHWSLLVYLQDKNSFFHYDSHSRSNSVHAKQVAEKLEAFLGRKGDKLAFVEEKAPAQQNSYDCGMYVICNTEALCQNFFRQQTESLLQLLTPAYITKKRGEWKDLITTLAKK

BJ = test: cytotoxicity toward BJ-TERT-LT-ST fibroblasts, dose response, cell-based, RAS-independent, luminescence (AID 1935); format: functional; conditions: Homo sapiens;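 note: BJ fibroblasts immortalized with TERT plus LT and ST oncogenes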
Aurora kinase B = Aurora kinase B (Homo sapiens, UniProt Q96GD4); format: functional
[2] = target: Calcium/calmodulin-dependent protein kinase type II subunit delta (Homo sapiens, UniProt Q13557); format: functional
[3] = target: Serine/threonine-protein kinase 17A (Homo sapiens, UniProt Q9UEE5); format: functional
Activin receptor type-1 = Activin receptor type-1 (Homo sapiens, UniProt Q04771); test: Navigating the Kinome. Panel member name: ACVR1; format: functional
[4] = inhibitors of SNCA 5'UTR-driven translation, confirmation, luminescence, H4 neuroglioblastoma cells, dose confirmation (AID 2454); format: functional, cell-based;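 note: H4 neuroglioblastoma cells carrying an alpha-synuclein 5'UTR luciferase reporter; potency for inhibition of the luciferase signal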
[5] = luciferase reporter signal reduction – luminescence, H4-C neuroglioblastoma cells, dose response (AID 2458); format: functional, cell-based;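 note: H4 neuroglioblastoma cells stably carrying a luciferase reporter gene fusion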
[6] = ZM109 Env clade C HIV-1 fusion inhibitors, dose response, HeLa effector, CEM target cells, luciferase, cherry-pick (AID 652058); format: functional, cell-based

Aurora kinase B, sequence (Q96GD4 whole entry): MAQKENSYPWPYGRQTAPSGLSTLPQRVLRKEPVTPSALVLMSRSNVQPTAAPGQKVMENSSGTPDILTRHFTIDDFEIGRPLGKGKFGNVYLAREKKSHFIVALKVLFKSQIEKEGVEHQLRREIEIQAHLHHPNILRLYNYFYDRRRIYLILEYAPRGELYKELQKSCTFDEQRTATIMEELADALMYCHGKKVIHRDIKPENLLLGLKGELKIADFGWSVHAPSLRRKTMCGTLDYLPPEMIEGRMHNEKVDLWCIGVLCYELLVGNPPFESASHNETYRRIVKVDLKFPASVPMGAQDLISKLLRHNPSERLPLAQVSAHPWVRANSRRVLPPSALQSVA
Calcium/calmodulin-dependent protein kinase type II subunit delta, sequence (Q13557 whole entry): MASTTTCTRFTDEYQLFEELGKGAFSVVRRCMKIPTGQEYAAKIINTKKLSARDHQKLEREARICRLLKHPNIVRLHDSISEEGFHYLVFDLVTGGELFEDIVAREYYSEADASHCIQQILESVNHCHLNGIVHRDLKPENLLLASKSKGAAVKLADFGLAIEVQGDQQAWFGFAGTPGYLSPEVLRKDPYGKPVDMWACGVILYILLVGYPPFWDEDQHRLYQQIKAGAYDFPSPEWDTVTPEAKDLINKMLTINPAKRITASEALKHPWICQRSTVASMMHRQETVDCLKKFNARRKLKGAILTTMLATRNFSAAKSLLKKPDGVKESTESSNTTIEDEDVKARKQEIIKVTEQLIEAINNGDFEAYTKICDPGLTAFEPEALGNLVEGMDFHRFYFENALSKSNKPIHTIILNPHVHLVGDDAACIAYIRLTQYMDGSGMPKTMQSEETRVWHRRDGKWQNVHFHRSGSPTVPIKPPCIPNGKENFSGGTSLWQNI
Activin receptor type-1, sequence (Q04771 whole entry): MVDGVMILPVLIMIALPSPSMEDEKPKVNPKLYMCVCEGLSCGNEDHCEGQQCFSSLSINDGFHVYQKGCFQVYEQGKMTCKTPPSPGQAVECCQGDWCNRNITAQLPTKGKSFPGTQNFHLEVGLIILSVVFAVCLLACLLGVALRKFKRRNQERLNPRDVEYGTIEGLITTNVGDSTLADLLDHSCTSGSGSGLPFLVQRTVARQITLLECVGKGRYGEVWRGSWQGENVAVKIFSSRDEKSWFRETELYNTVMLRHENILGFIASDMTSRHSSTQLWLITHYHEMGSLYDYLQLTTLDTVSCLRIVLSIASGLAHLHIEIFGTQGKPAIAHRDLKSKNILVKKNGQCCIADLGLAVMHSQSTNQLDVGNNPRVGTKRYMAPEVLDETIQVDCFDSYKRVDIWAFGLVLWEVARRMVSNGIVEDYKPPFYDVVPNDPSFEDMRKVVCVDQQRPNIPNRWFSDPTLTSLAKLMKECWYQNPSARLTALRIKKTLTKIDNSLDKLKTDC
Serine/threonine-protein kinase 17A, sequence (Q9UEE5 whole entry): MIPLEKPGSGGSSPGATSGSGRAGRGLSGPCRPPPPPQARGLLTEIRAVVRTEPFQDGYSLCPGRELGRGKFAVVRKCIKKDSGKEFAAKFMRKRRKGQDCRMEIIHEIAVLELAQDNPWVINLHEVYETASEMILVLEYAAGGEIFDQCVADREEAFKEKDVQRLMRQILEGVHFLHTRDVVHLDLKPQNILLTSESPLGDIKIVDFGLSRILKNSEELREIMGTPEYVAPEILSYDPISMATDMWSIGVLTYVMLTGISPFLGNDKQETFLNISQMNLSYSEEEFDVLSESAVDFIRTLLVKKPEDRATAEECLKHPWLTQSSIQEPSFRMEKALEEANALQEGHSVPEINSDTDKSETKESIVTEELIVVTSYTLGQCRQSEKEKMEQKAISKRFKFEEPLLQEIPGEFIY

## CNC[C@H](Cc1ccccc1)NC[C@@H](Cc1cccc2ccccc12)NCCc1ccc(C)cc1
Insulin-degrading enzyme
  EC50: 7.52 µM (active)

## Nc1nnc2c(n1)CCCC2
[1]
  IC50: 6.32 µM (active)

## O=C(N/N=C/c1c(O)ccc2ccccc12)c1[nH]ncc1Br
BJ
  EC50: 10.5 µM (active)

## Nc1c(-c2ccc(NC(=O)Nc3cccc(C(F)(F)F)c3)cc2)cnc2c(-c3ccc4c(c3)OCO4)cnn12
Aurora kinase B
  Ki: 1 µM (active)

## O=C(Nc1cc(-c2c[nH]c3ncccc23)cc(Cl)n1)c1ccccc1
[2]
  Ki: > 3.16 µM (inactive)
[3]
  Ki: 1.58 µM (active)
Activin receptor type-1
  Ki: > 3.98 µM (inactive)

## CCN1C(=Cc2sc3ccccc3[n+]2C)C=Cc2cccc(C)c21
[4]
  EC50: > 12 µM (not active)
[5]
  EC50: 3.14 µM (active)
[6]
  AC50: 7.58 µM (active)
